Calls of active or inactive are those of the source. The calls are words filed in the database; no cut-off is given here.

In series [1] the test system is Pseudomonas aeruginosa. The series can be described thus: Antibiofilm activity against Pseudomonas aeruginosa NBRC13275 assessed as inhibition of biofilm formation at 500 uM incubated for 6 hrs by crystal violet staining based microtiter plate reader assay relative to control; values are per cent of control. The settings on record: NBRC13275, 6 h.
Series [2] has as its system Pseudomonas aeruginosa. The series can be described thus: Antibacterial activity against Pseudomonas aeruginosa NBRC13275 assessed as bacterial cell density at 500 uM relative to control. It counts as functional.
In series [3] the test system is Streptococcus mutans. Kind of series: Antibiofilm activity against Streptococcus mutans NBRC13955 assessed as inhibition of biofilm formation at 500 uM incubated for 24 hrs by crystal violet staining based microtiter plate reader assay relative to control; values are per cent of control. The settings on record: NBRC13955, 24 h.
Series [4] has as its system Escherichia coli. Kind of series: Antibacterial activity against Escherichia coli DH5alpha assessed as bacterial cell density at 500 uM relative to control. It counts as functional, DH5[alpha].
Series [5] concerns Staphylococcus aureus. Kind of series: Antibacterial activity against Staphylococcus aureus NBRC13276 assessed as bacterial cell density at 500 uM relative to control. It counts as functional.
Series [6] relates to Staphylococcus aureus. Kind of series: Antibiofilm activity against Staphylococcus aureus NBRC13276 assessed as inhibition of biofilm formation at 500 uM incubated for 24 hrs by crystal violet staining based microtiter plate reader assay relative to control; values are per cent of control. To be noted: NBRC13276, 24 h.
The subject of series [7] is Escherichia coli. Kind of series: Antibiofilm activity against Escherichia coli DH5alpha assessed as inhibition of biofilm formation at 500 uM incubated for 24 hrs by crystal violet staining based microtiter plate reader assay relative to control; values are per cent of control. The settings on record: DH5[alpha].
Series [8] concerns Streptococcus mutans. Kind of series: Antibacterial activity against Streptococcus mutans NBRC13955 assessed as bacterial cell density at 500 uM relative to control. It counts as functional.
Series [9] can be described thus: Growth inhibition of Staphylococcus aureus NBRC13276 at 1000 uM.
The test system of series [10] is Pseudomonas aeruginosa. Kind of series: Antimicrobial activity against Pseudomonas aeruginosa assessed as inhibition of flagella synthesis relative to control. It counts as functional, organism-based.

As to `Nc1nc2c(ncn2[C@@H]2O[C@@H]3COP(=O)(O)O[C@H]4[C@@H](O)[C@H](n5cnc6c(=O)[nH]c(N)nc65)O[C@@H]4COP(=O)(O)O[C@H]3[C@H]2O)c(=O)[nH]1`, the biofilm formation (% of control) at 500 µM in the series on Pseudomonas aeruginosa [1] stood at 48%; in the series on Streptococcus mutans [3] it was 18%; in the series with Staphylococcus aureus [6], 123%; with Escherichia coli [7] it was 81%. In addition, the Activity stood at 78% in the series on Pseudomonas aeruginosa [2], 76% in the series with Escherichia coli [4], 106% in the series with Staphylococcus aureus [5] and 98% with Streptococcus mutans [8].
In the case of `Nc1nc2c(ncn2CC(=O)N2CCNCCN(C(=O)Cn3cnc4c(=O)[nH]c(N)nc43)CC2)c(=O)[nH]1`, the biofilm formation (% of control) at 500 µM was found to be 105% with Pseudomonas aeruginosa [1], 92% in the series with Streptococcus mutans [3], 92% with Staphylococcus aureus [6] and 103% in the series on Escherichia coli [7]. In addition, the Activity with Pseudomonas aeruginosa [2] worked out at 105%; in the series on Escherichia coli [4], 95%; with Staphylococcus aureus [5], 103%; in the series on Streptococcus mutans [8], 121%.
Regarding `CC(=O)NCCNCCNC(=O)Cn1cnc2c(=O)[nH]c(N)nc21`, the biofilm formation (% of control) at 500 µM with Pseudomonas aeruginosa [1] stood at 99%; in the series with Streptococcus mutans [3], 101%; in the series with Staphylococcus aureus [6] it was 135%; in the series on Escherichia coli [7], 108%. For the same molecule, the Activity turned out to be 119% in the series on Pseudomonas aeruginosa [2], 85% in the series with Escherichia coli [4], 100% with Staphylococcus aureus [5] and 92% in the series with Streptococcus mutans [8].
As to `Nc1nc2c(ncn2CC(=O)NCCNCCNC(=O)Cn2cnc3c(=O)[nH]c(N)nc32)c(=O)[nH]1`, the biofilm formation (% of control) at 500 µM came to 87% in the series on Pseudomonas aeruginosa [1], 98% in the series with Streptococcus mutans [3], 42% in the series on Staphylococcus aureus [6] and 99% with Escherichia coli [7]. The Activity is recorded as 112% with Pseudomonas aeruginosa [2], 95% in the series with Escherichia coli [4], 102% in the series with Staphylococcus aureus [5] and 109% in the series on Streptococcus mutans [8].
In the case of `CC(C)C(=O)N1CCN(C(=O)Cn2cnc3c(=O)[nH]c(N)nc32)CCN(C(=O)C(C)C)CCN(C(=O)Cn2cnc3c(=O)[nH]c(N)nc32)CC1`, the biofilm formation (% of control) at 500 µM in the series with Pseudomonas aeruginosa [1] was determined as 114%; with Streptococcus mutans [3], 88%; in the series with Staphylococcus aureus [6] it was 87%; in the series on Escherichia coli [7] it was 118%. Moreover, the Activity in the series with Pseudomonas aeruginosa [2] amounted to 313%; in the series on Escherichia coli [4], 559%; in the series with Staphylococcus aureus [5], 267%; in the series with Streptococcus mutans [8] it was 206%.
For the molecule `Nc1nc2c(ncn2CC(=O)N2CCN(C(=O)OCc3ccccc3)CCN(C(=O)Cn3cnc4c(=O)[nH]c(N)nc43)CCN(C(=O)OCc3ccccc3)CC2)c(=O)[nH]1`, the biofilm formation (% of control) at 500 µM with Pseudomonas aeruginosa [1] came to 86%; with Streptococcus mutans [3], 17%; in the series on Staphylococcus aureus [6] it was 80%; in the series on Escherichia coli [7], 138%. In addition, the Activity in the series on Pseudomonas aeruginosa [2] was found to be 105%; in the series on Escherichia coli [4], 91%; with Staphylococcus aureus [5], 111%; in the series on Streptococcus mutans [8], 143%.
Turning to `Nc1nc2c(ncn2CC(=O)N2CCNCCN(C(=O)Cn3cnc4c(=O)[nH]c(N)nc43)CCNCC2)c(=O)[nH]1`, the biofilm formation (% of control) at 500 µM in the series with Pseudomonas aeruginosa [1] is 85%; in the series on Streptococcus mutans [3], 96%; in the series with Staphylococcus aureus [6] it was 89%; with Escherichia coli [7] it was 133%. In addition, the Activity came out at 100% with Pseudomonas aeruginosa [2], 93% with Escherichia coli [4], 108% in the series with Staphylococcus aureus [5] and 138% with Streptococcus mutans [8].
Turning to `CCC(=O)N(CCNC(=O)Cn1cnc2c(=O)[nH]c(N)nc21)CCNC(=O)Cn1cnc2c(=O)[nH]c(N)nc21`, the biofilm formation (% of control) at 500 µM with Pseudomonas aeruginosa [1] came out at 94%; with Streptococcus mutans [3] it was 125%; in the series on Staphylococcus aureus [6] it was 85%; in the series on Escherichia coli [7], 97%. The Activity in the series with Pseudomonas aeruginosa [2] was determined as 98%; with Escherichia coli [4], 95%; in the series with Staphylococcus aureus [5] it was 92%; in the series with Streptococcus mutans [8], 106%.
`Nc1nc2c(ncn2CC(=O)N2CCN(CC(=O)O)CCN(C(=O)Cn3cnc4c(=O)[nH]c(N)nc43)CCN(CC(=O)O)CC2)c(=O)[nH]1`: the biofilm formation (% of control) at 500 µM with Pseudomonas aeruginosa [1] stood at 82%; with Streptococcus mutans [3], 90%; in the series with Staphylococcus aureus [6] it was 74%; with Escherichia coli [7], 83%. Moreover, the Activity stood at 90% in the series on Pseudomonas aeruginosa [2], 85% in the series with Escherichia coli [4], 117% in the series on Staphylococcus aureus [5] and 105% in the series on Streptococcus mutans [8].
Consider `NCCN(CCNC(=O)Cn1cnc2c(=O)[nH]c(N)nc21)C(=O)Cn1cnc2c(=O)[nH]c(N)nc21`, for which the biofilm formation (% of control) at 500 µM came to 103% with Pseudomonas aeruginosa [1], 87% in the series with Streptococcus mutans [3], 87% with Staphylococcus aureus [6] and 104% in the series on Escherichia coli [7]. The Activity with Pseudomonas aeruginosa [2] came out at 116%; in the series with Escherichia coli [4], 95%; in the series on Staphylococcus aureus [5], 124%; with Streptococcus mutans [8] it was 98%.
In the case of `CCC(=O)N1CCN(C(=O)Cn2cnc3c(=O)[nH]c(N)nc32)CCN(C(=O)CC)CCN(C(=O)Cn2cnc3c(=O)[nH]c(N)nc32)CC1`, the biofilm formation (% of control) at 500 µM turned out to be 76% in the series with Pseudomonas aeruginosa [1], 46% in the series with Streptococcus mutans [3], 76% in the series with Staphylococcus aureus [6] and 153% in the series on Escherichia coli [7]. In addition, the Activity in the series on Pseudomonas aeruginosa [2] amounted to 118%; in the series with Escherichia coli [4] it was 105%; in the series with Staphylococcus aureus [5], 124%; with Streptococcus mutans [8] it was 117%.
For `CC(C)C(=O)N(CCNC(=O)Cn1cnc2c(=O)[nH]c(N)nc21)CCNC(=O)Cn1cnc2c(=O)[nH]c(N)nc21`, the biofilm formation (% of control) at 500 µM amounted to 83% in the series with Pseudomonas aeruginosa [1], 147% in the series on Streptococcus mutans [3], 103% with Staphylococcus aureus [6] and 107% with Escherichia coli [7]. In addition, the Activity stood at 98% in the series with Pseudomonas aeruginosa [2], 97% in the series with Escherichia coli [4], 92% with Staphylococcus aureus [5] and 104% in the series on Streptococcus mutans [8].
As to `CC(=O)N(CCNC(=O)Cn1cnc2c(=O)[nH]c(N)nc21)CCNC(=O)Cn1cnc2c(=O)[nH]c(N)nc21`, the biofilm formation (% of control) at 500 µM worked out at 104% in the series with Pseudomonas aeruginosa [1], 87% in the series on Streptococcus mutans [3], 76% in the series with Staphylococcus aureus [6] and 116% in the series with Escherichia coli [7]. Further, the Activity in the series with Pseudomonas aeruginosa [2] was determined as 119%; in the series with Escherichia coli [4], 101%; in the series with Staphylococcus aureus [5] it was 108%; in the series on Streptococcus mutans [8], 154%.
For `CC(=O)N1CCN(C(=O)Cn2cnc3c(=O)[nH]c(N)nc32)CCN(C(C)=O)CCN(C(=O)Cn2cnc3c(=O)[nH]c(N)nc32)CC1`, the biofilm formation (% of control) at 500 µM in the series on Pseudomonas aeruginosa [1] came out at 60%; in the series with Streptococcus mutans [3], 40%; in the series with Staphylococcus aureus [6], 20%; with Escherichia coli [7] it was 36%. In addition, the Activity is given as 90% with Pseudomonas aeruginosa [2], 52% in the series with Escherichia coli [4], 150% in the series with Staphylococcus aureus [5] and 136% with Streptococcus mutans [8]. Also, in [9], the “growth inhibition (GI)” value was “Non-Toxic”. Moreover, the outcome with Pseudomonas aeruginosa [10] was inactive.
Turning to `Nc1nc2c(ncn2CC(=O)NCCN(CCNC(=O)Cn2cnc3c(=O)[nH]c(N)nc32)CC(=O)O)c(=O)[nH]1`, the biofilm formation (% of control) at 500 µM in the series on Pseudomonas aeruginosa [1] amounted to 82%; in the series with Streptococcus mutans [3], 78%; in the series with Staphylococcus aureus [6], 87%; with Escherichia coli [7], 138%. Besides, the Activity with Pseudomonas aeruginosa [2] is on record as 126%; with Escherichia coli [4] it was 95%; in the series with Staphylococcus aureus [5], 99%; in the series on Streptococcus mutans [8] it was 188%.

(Values after ChEMBL document CHEMBL4680303, “Amine skeleton-based c-di-GMP derivatives as biofilm formation inhibitors” (Bioorg Med Chem Lett, 2021).)
